# Data as given in patent US10662195B2, “Protein kinase conjugates and inhibitors” (Celgene Avilomics Research, Inc., priority 2009, dated 2020).
# Molecular target: BTK (Homo sapiens, UniProt Q06187)
# Test: Omnia assay for potency assessment against BTK
# Type: biochemical
# Details: 30 min pre-incubation; read-out: IC50_APP BTK
# Description: B. Omnia Assay Protocol for Potency Assessment Against BTK
# Below describes the protocol using EGFR-WT and EGFR-T790M/L858R and the protocol BTK-optimized reagent conditions then follow.
# The mechanics of the assay platform are best described by the vendor (Invitrogen, Carlsbad, Calif.) on their website at the following URL: http://www.invitrogen.com/content.cfm?pageid=11338 or http://www.invitrogen.com/site/us/en/home/Products-and-Services/Applications/Drug-Discovery/Target-and-Lead-Identification-and-Validation/KinaseBiology/KB-Misc/Biochemical-Assays/Omnia-Kinase-Assays.html.
# Briefly, 10× stocks of EGFR-WT (PV3872) from Invitrogen and EGFR-T790M/L858R (40350) from BPS Bioscience, San Diego, Calif., 1.13×ATP (AS001A) and appropriate Tyr-Sox conjugated peptide substrates (KCZ1001) were prepared in 1× kinase reaction buffer consisting of 20 mM Tris, pH 7.5, 5 mM MgCl2, 1 mM EGTA, 5 mM β-glycerophosphate, 5% glycerol (10× stock, KB002A) and 0.2 mM DTT (DS001A). 5 μL of each enzyme were pre-incubated in a Corning (#3574) 384-well, white, non-binding surface microtiter plate (Corning, N.Y.) for 30 min. at 27° C. with a 0.5 μL volume of 50% DMSO and serially diluted compounds prepared in 50% DMSO. Kinase reactions were started with the addition of 45 μL of the ATP/Tyr-Sox peptide substrate mix and monitored every 30-90 seconds for 60 minutes at λex360/λem485 in a Synergy^4 plate reader from BioTek (Winooski, Vt.). At the conclusion of each assay, progress curves from each well were examined for linear reaction kinetics and fit statistics (R^2, 95% confidence interval, absolute sum of squares). Initial velocity (0 minutes to ˜30 minutes) from each reaction was determined from the slope of a plot of relative fluorescence units vs time (minutes) and then plotted against inhibitor concentration to estimate IC50 from log [Inhibitor] vs Response, Variable Slope model in GraphPad Prism from GraphPad Software (San Diego, Calif.).
# The modified BTK-optimized reagent conditions for the above protocol are:
# [BTK]=5 nM, [ATP]=[…], [Y5-Sox]=[…] (ATP KMapp˜[…]).
# The reported IC50_APP and IC50 values are in units of nM.
# Chain of BTK (Q06187 whole entry): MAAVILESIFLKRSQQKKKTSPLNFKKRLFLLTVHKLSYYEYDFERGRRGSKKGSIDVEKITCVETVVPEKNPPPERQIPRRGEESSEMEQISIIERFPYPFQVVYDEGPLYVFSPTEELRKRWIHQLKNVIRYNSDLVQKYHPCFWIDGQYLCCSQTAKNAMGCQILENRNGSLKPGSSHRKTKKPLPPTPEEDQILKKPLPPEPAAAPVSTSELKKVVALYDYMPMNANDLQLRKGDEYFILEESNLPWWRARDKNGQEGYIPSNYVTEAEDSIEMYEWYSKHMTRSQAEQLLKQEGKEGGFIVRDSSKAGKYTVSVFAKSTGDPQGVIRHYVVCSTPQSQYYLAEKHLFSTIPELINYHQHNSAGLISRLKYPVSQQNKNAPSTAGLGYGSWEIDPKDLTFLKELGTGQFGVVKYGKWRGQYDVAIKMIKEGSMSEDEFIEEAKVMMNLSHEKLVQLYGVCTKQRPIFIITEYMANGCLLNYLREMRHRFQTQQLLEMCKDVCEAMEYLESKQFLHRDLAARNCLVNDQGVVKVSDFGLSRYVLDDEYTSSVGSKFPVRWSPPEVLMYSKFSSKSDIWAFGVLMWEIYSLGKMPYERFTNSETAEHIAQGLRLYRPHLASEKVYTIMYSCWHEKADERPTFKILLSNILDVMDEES
structure (smiles),measurement,value
"C=CC(=O)N1CCC(Sc2nc(Nc3ncc(C#N)s3)cc(N3CCN(C)CC3)n2)CC1 [II-2, 2-(2-(1-Acryloylpiperidin-4-ylthio)-6-(4-methylpiperazin-1-yl)pyrimidin-4-ylamino)thiazole-5-carbonitrile]",IC50,572 pM
